From patent publication US5624911A, “Ether derivatives of pseudopterosin” (The Regents of the University of California, priority 1995, dated 1997)
Like-named read-outs stand apart in the source and are kept apart here.

B1: human plasminogen: Plasminogen (from human plasma) was obtained from Athens Research and Technology, Athens, Ga. (protein, UniProt P00747 20-810, looked up)
Plasminogen: EPLDDYVNTQGASLFSVTKKQLGAGSIEECAAKCEEDEEFTCRAFQYHSKEQQCVIMAENRKSSIIIRMRDVVLFEKKVYLSECKTGNGKNYRGTMSKTKNGITCQKWSSTSPHRPRFSPATHPSEGLEENYCRNPDNDPQGPWCYTTDPEKRYDYCDILECEEECMHCSGENYDGKISKTMSGLECQAWDSQSPHAHGYIPSKFPNKNLKKNYCRNPDRELRPWCFTTDPNKRWELCDIPRCTTPPPSSGPTYQCLKGTGENYRGNVAVTVSGHTCQHWSAQTPHTHNRTPENFPCKNLDENYCRNPDGKRAPWCHTTNSQVRWEYCKIPSCDSSPVSTEQLAPTAPPELTPVVQDCYHGDGQSYRGTSSTTTTGKKCQSWSSMTPHRHQKTPENYPNAGLTMNYCRNPDADKGPWCFTTDPSVRWEYCNLKKCSGTEASVVAPPPVVLLPDVETPSEEDCMFGNGKGYRGKRATTVTGTPCQDWAAQEPHRHSIFTPETNPRAGLEKNYCRNPDGDVGGPWCYTTNPRKLYDYCDVPQCAAPSFDCGKPQVEPKKCPGRVVGGCVAHPHSWPWQVSLRTRFGMHFCGGTLISPEWVLTAAHCLEKSPRPSSYKVILGAHQEVNLEPHVQEIEVSRLFLEPTRKDIALLKLSSPAVITDKVIPACLPSPNYVVADRTECFITGWGETQGTFGAGLLKEAQLPVIENKVCNRYEFLNGRVQSTELCAGHLAGGTDSCQGDSGGPLVCFEKDKYILQGVTSWGLGCARPNKPGVYVRVSRFVTWIEGVMRNN
B2: IL-1-α: Recombinant Human Interleukin-1-α was obtained from R&D Systems, Minneapolis, Minn. (protein, UniProt P01583 113-271, looked up)
Interleukin-1 alpha: SAPFSFLSNVKYNFMRIIKYEFILNDALNQSIIRANDQYLTAAALHNLDEAVKFDMGAYKSSKDDAKITVILRISKTQLYVTAQDEDQPVLLKEMPEIPKTITGSETNLLFFWETHGTKNYFTSVAHPNLFIATKQDYWVCLAGGPPSITDFQILENQA

Key:
[1] = tested on: edema induced by phorbol 12-myristate 13-acetate (PMA) in ears of mice; test: Mouse Ear Edema Assay (PMA-induced edema, topical); format: in vivo; details: for % Inhibition (of edema relative to PMA control) / Mean Edema (mgs ± SEM): topical, 50 μg/ear with PMA 2 μg/ear, 3 hours 20 minutes; for Mean Edema (mgs ± SEM): PMA controls 17.7 ± 0.6
Description: The pseudopterosin ethers were topically applied in acetone to the inside pinnae of the ears of mice in a solution containing the edema-causing irritant, phorbol 12-myristate 13-acetate (PMA). PMA alone (2 μg/ear) or in combination with 50 μg/ear of test compound was applied to the left ears (5 mice per treatment group) and acetone is applied to all right ears. After 3 hours 20 minutes incubation, the mice were sacrificed, the ears removed, and bores taken and weighed. Edema was measured by subtracting the weight of the right ear (acetone control) from the weight of the left ear (treated). Results were recorded as percent decrease (inhibition) or percent increase (potentiation) in edema relative to the PMA control group edema.

[2] = tested on: bovine articular cartilage explants; test: Inhibition of IL-1-induced Cartilage Degradation in the Presence of Human Plasminogen (35S glycosaminoglycan release); format: cell-based, bovine (calf); details: for % Inhibition @ 30 μM (Explant) / IC50: plasminogen 0.4 μM plus IL-1 0.5 ng/mL, 96 hours; for IC50: explant
Description: (§1) The ether derivatives were also tested to determine their usefulness in inhibiting degradation of cartilage. Bovine articular cartilage explants labeled with ^35 Sulfate were used to monitor chondrocyte-mediated cartilage degradation in the presence of plasminogen, at concentrations similar to that measured in synovial fluid (0.4 μM), cartilage is extremely sensitive to the effects of IL-1-stimulated degradation. Stimulated chondrocytes produce and activate plasminogen activator (uPA), causing conversion of plasminogen to plasmin. Plasmin is not only an effective activator of the MMP's, but also an effective proteoglycanase. Inhibitors were added to the assay concomitant with the cytokine IL-1, and their effect was monitored by measuring differences in ^35 S glycosaminoglycan release, as compared to appropriate controls.
(§2) Plasminogen (from human plasma) was obtained from Athens Research and Technology, Athens, Ga. Recombinant Human Interleukin-1-α was obtained from R&D Systems, Minneapolis, Minn. DMEM was obtained from Gibco, Grand Island, New York. ^35 S-Sodium Sulfate was obtained from Amersham, Arlington Heights, Ill.
(§3) Bovine (calf) radiocarpal joints were acquired from a local abbatoir immediately after sacrifice and transported on ice. The joints were then washed thoroughly and placed in ice containing approximately 25% Povidine (10% Povidone-lodine topical solution). The joints were then dissected in a sterile hood using good sterile technique. Media (DMEM containing 4.5 g/L D-Glucose and L-Glutamine, without sodium pyruvate) was supplemented with HEPES buffer and sodium bicarbonate, and the pH adjusted to 7.4. The media was further supplemented with penicillin and streptomycin (100 units/mL and 100 μg/ml, respectively) and 50 μg/mL L-ascorbic acid. The cartilage surfaces were exposed, and the synovial fluid was wiped away with sterile gauze. A sterile cork-borer with a diameter of 3.5 millimeters was used to remove uniform plugs of cartilage. Proper orientation was maintained by distinguishing the underlying bony layer in the plugs (only the articulating surface of the cartilage plugs were used in the experiments). The plugs were placed in a sterile flask, washed four times with 50 mL of fresh media, and then placed in an incubator (37 degrees centigrade, with 5% CO2 /95% air, with adequate humidity) and allowed to equilibrate for 1 hour. A 1 mm thick slice of the articulating surface was sliced off of each individual cartilage plug, using a specially designed template to obtain uniform thickness. The cartilage disks were then labeled en mass with ^35 Sulfate at a concentration of approximately 10 μCi/mL for approximately 72-96 hours, with hand-stirring every few hours. Subsequent to labeling, explants were equilibrated with fresh media each 48 hours. The total time for labeling/equilibration was approximately one week from acquisition/dissection of tissue.
(§4) For testing of ether derivatives, individual explants were transferred to 96-well plates containing 250μL of media with or without Plasminogen plus IL-1, and with or without ether derivative. […] All other groups in any assay would contain ether derivative along with concomitant plasminogen plus IL-1. Five samples were routinely used, with concentrations of plasminogen plus IL-1 of 0.4 μM and 0.5 ng/mL, respectively. The assay is allowed to incubate for 96 hours, prior to counting a 50 μL sample of supernatant from each well. A 50 μL sample of a papain digest of each explant is also counted for each respective well. From the counts released into the supernatant over four days, and the total counts present, the data can be expressed as % glycosaminoglycan (GAG) over the four days). The media alone % GAG release values are subtracted from all other values where plasminogen plus IL-1 were present (media alone represents the background for the system). […]

[3] = tested on: bovine articular cartilage explants; test: Interleukin-1 mediated cartilage degradation, with or without plasminogen (35S-GAG release); format: cell-based, bovine (calf); details: for degradation by plasminogen alone (in words): 0.4 μM human plasminogen alone
Description: as §1, §2, §3, §4

Row | Molecule | % Inhibition (of edema relative to PMA control) [1] [%] | Mean Edema (mgs ± SEM) [1] [mgs] | % Inhibition @ 30 μM (Explant) [2] | IC50 ([2]; Bos taurus, read-out: IC50) [µM] | further results
1 | CC(C)=C[C@H]1C[C@H](C)[C@H]2CC[C@H](C)c3c(O[C@@H]4OC[C@@H](O)[C@H](O)[C@H]4O)c(OCc4ccccc4)c(C)c1c32 [WF 332, Pseudopterosin A Benzyl ether] | 68.3 | 5.6 ± 1.0 | 57% | 26 | –
2 | CC(C)=C[C@H]1C[C@H](C)[C@H]2CC[C@H](C)c3c(O[C@@H]4OC[C@@H](O)[C@H](O)[C@H]4O)c(OCC(N)=O)c(C)c1c32 [WF 337, Pseudopterosin A Acetamide ether] | 52.6 | 8.4 ± 1.4 | 74% | 15 | –
3 | CCCCCCCCCCCCCCCCCCOc1c(C)c2c3c(c1O[C@@H]1OC[C@@H](O)[C@H](O)[C@H]1O)[C@@H](C)CC[C@@H]3[C@@H](C)C[C@@H]2C=C(C)C [WF 335, Pseudopterosin A Octadecanyl ether] | 54.4 | 8.0 ± 1.2 | 27% | > 30 | –
4 | bis pseudopterosin A pentanyl diether [WF 338] | 6.7 | 16.5 ± 1.2 | 0% | – | anti-inflammatory activity (in words) ([1]; mouse ear edema, comparison compound): little if any anti-inflammatory activity; inhibition of explant degradation (in words) ([2]; as can be seen from TABLE 2): inhibited explant degradation, except for WF 338; IC50 ([2]; read-out: IC50): > 30 µM
5 | CCCCCOc1c(C)c2c3c(c1O[C@@H]1OC[C@@H](O)[C@H](O)[C@H]1O)[C@@H](C)CC[C@@H]3[C@@H](C)C[C@@H]2C=C(C)C [WF 333, Pseudopterosin A Pentyl ether] | 62.2 | 6.7 ± 1.0 | 58% | > 40 | –
6 | CC(C)=C[C@H]1C[C@H](C)[C@H]2CC[C@H](C)c3c(O[C@@H]4OC[C@@H](O)[C@H](O)[C@H]4O)c(OCCCCO)c(C)c1c32 [WF 336, Pseudopterosin A Butanol ether] | 69.9 | 5.3 ± 0.9 | 73% | 19 | –
7 | CCCCCCCCCCOc1c(C)c2c3c(c1O[C@@H]1OC[C@@H](O)[C@H](O)[C@H]1O)[C@@H](C)CC[C@@H]3[C@@H](C)C[C@@H]2C=C(C)C [WF 334, Pseudopterosin A Decanyl ether] | 60.7 | 7.0 ± 0.9 | Inconclusive | – | IC50 [2]: Inconclusive
8 | B1 | – | – | – | – | degradation by plasminogen alone (in words) [3]: does not induce any degradation above control levels; degradation by plasminogen alone (in words) ([3]; listed as plasminogen): same results as media alone
9 | B2 | – | – | – | – | 35S-GAG release ([3]; IL-1-α 0.4 ng/mL plus plasminogen 0.4 μM, four day assay): approximately 50%; GAG release ([3]; IL-1-α 1 ng/mL plus 0.5 μM plasminogen): greater than 90%; increase in degradation over control ([3]; IL-1-α 2.5 ng/mL, without plasminogen): two-fold increase; release of 35S-labeled GAG ([3]; IL-1-α 10 ng/mL, without plasminogen): ~35%; dose dependence of degradation (in words) ([3]; IL-1-α, without plasminogen): induces degradation in bovine articular cartilage explants in a dose-dependent manner
